According to US10206398B2, “Five-membered C-N-attached aryl sulphide and aryl sulphoxide derivatives as pesticides” (BAYER CROPSCIENCE AKTIENGESELLSCHAFT, priority 2014, dated 2019):
Several values for one entry are separate records, joined by “and”; a condition that tells them apart may be missing. Equal values may be shown once. Read-outs that look alike come from different tables or passages of the source.

Columns and labels:
Tetranychus urticae = Tetranychus urticae - spray test, OP-resistant (bean leaf discs, 6 days); type: in vivo; conditions: 500 g/ha, after 6 days; for pest or weed control at 500 g/ha: Tetranychus urticae, foliar, 144 h, read-out: efficacy (spider mites killed)
Experimental: 5. Tetranychus urticae—Spray Test, OP-Resistant
Solvent: 78.0 parts by weight of acetone
• 1.5 parts by weight of dimethylformamide Emulsifier: alkylaryl polyglycol ether
To produce a suitable preparation of active compound, 1 part by weight of active compound is dissolved using the stated parts by weight of solvent and made up with water containing an emulsifier concentration of 1000 ppm until the desired concentration is attained. To produce further test concentrations, the preparation is diluted with emulsifier-containing water.
Discs of bean leaves (Phaseolus vulgaris) infested with all stages of the greenhouse red spider mite (Tetranychus urticae) are sprayed with an active compound preparation of the desired concentration.
After 6 days, the efficacy in % is determined. 100% means that all the spider mites have been killed; 0% means that no spider mites have been killed.

[1] = log P determination by HPLC on reversed-phase columns (C 18), analogous to OECD Guideline 117; type: physicochemical; conditions: for logP[a]: method [a]; for logP[b]: method [b]; for chromatographic logP: reversed-phase HPLC column (C 18)
Experimental: The log P values were determined analogously to OECD Guideline 117 (EC Directive 92/69/EEC) by HPLC (high-performance liquid chromatography) using reversed-phase columns (C 18), by the following methods: [a] The LC-MS determination in the acidic range was effected at pH 2.7 with 0.1% aqueous formic acid and acetonitrile (contains 0.1% formic acid) as eluents; linear gradient from 10% acetonitrile to 95% acetonitrile. log P[a] is also referred to as log P(HCOOH). [b] LC-MS determination in the neutral range was effected at pH 7.8 with 0.001 molar aqueous ammonium hydrogencarbonate solution and acetonitrile as eluents; linear gradient from 10% acetonitrile to 95% acetonitrile. log P[b] is also referred to as log P(neutral). Calibration is effected with solutions of a homologous series of unbranched alkan-2-ones (having 3 to 16 carbon atoms) with known log P values (log P values determined on the basis of the retention times by linear interpolation between two successive alkanones).

[2] = pH 2.7, HPLC, acidic range, pH 2.7, 0.1% aqueous formic acid and acetonitrile, read-out: log P(HCOOH)
[3] = pH 2.7, method [a], read-out: logP[a]
[4] = pH 7.8, HPLC, neutral range, pH 7.8, 0.001 molar aqueous ammonium hydrogencarbonate and acetonitrile, read-out: log P(neutral)
[5] = pH 7.8, method [b], read-out: logP[b]
[6] = pH 2.7, Table 3, HPLC, acidic range, pH 2.7, read-out: logP[a]
[7] = pH 7.8, Table 3, HPLC, neutral range, pH 7.8, read-out: logP[b]

SMILES: O=C(Nc1cccc(Cl)c1)N1CC(=O)N(c2cc([S+]([O-])CC(F)(F)F)c(Cl)cc2Cl)C1=O (racemic) [compound 117]
- efficacy (spider mites killed) (Tetranychus urticae): 100%
- logP[a] [1]: 3.81
- logP[b] [1]: 3.89

SMILES: O=C(Nc1cccc(C(F)(F)F)c1)N1CC(=O)N(c2cc([S+]([O-])CC(F)(F)F)c(Cl)cc2Cl)C1=O (racemic) [compound 120]
- efficacy (spider mites killed) (Tetranychus urticae): 100%
- logP[a] [1]: 3.92
- logP[b] [1]: 4.02

SMILES: Cc1cc(F)c(N2C(=O)CN(C(=O)NC3CC3)C2=O)cc1[S+]([O-])CC(F)(F)F (stereo not drawn) [Ex. No. 3, N-Cyclopropyl-3-[2-fluoro-4-methyl-5-(2,2,2-trifluoroethylsulphinyl)phenyl]-2,4-dioxoimidazolidine-1-carboxamide]
- pest or weed control at 500 g/ha (Tetranychus urticae): 100%
- chromatographic logP [1, 2]: 2.15
- chromatographic logP [1, 3]: 2.15
- chromatographic logP [1, 4]: 2.12
- chromatographic logP [1, 5]: 2.12

SMILES: Cc1cc(F)c(N2C(=O)CN(C(=O)NC3CC3)C2=S)cc1[S+]([O-])CC(F)(F)F (stereo not drawn) [Ex. No. 4, N-Cyclopropyl-3-[2-fluoro-4-methyl-5-(2,2,2-trifluoroethylsulphinyl)phenyl]-4-oxo-2-thioxoimidazolidine-1-carboxamide]
- pest or weed control at 500 g/ha (Tetranychus urticae): 100%
- chromatographic logP [1, 2]: 2.64
- chromatographic logP [1, 3]: 2.64
- chromatographic logP [1, 4]: 2.65
- chromatographic logP [1, 5]: 2.65

SMILES: Cc1cc(F)c(N2C(=O)CN(C(=O)NCC(C)C)C2=O)cc1SCC(F)(F)F [Ex. No. 12, 3-[2-Fluoro-4-methyl-5-(2,2,2-trifluoroethylsulphanyl)phenyl]-N-isobutyl-2,4-dioxoimidazolidine-1-carboxamide]
- pest or weed control at 500 g/ha (Tetranychus urticae): 100%
- chromatographic logP [1, 2]: 3.67
- chromatographic logP [1, 3]: 3.67
- chromatographic logP [1, 4]: 3.58
- chromatographic logP [1, 5]: 3.58

SMILES: Cc1cc(F)c(N2C(=O)CN(C(=O)NCC(C)C)C2=S)cc1[S+]([O-])CC(F)(F)F (stereo not drawn) [Ex. No. 13]
- efficacy (spider mites killed) (Tetranychus urticae): 90%
- logP[a] [1]: 3.33
- logP[b] [1]: 3.24

SMILES: CCNC(=O)N1C(=O)N(c2cc(SCC(F)(F)F)c(C)cc2F)C(=O)C1C (stereo not drawn) [Ex. No. 24, N-Ethyl-3-[2-fluoro-4-methyl-5-(2,2,2-trifluoroethylsulphanyl)phenyl]-5-methyl-2,4-dioxoimidazolidine-1-carboxamide]
- pest or weed control at 500 g/ha (Tetranychus urticae): 100%
- chromatographic logP [1, 2]: 3.38
- chromatographic logP [1, 3]: 3.38
- chromatographic logP [1, 4]: 3.3
- chromatographic logP [1, 5]: 3.3

SMILES: Cc1cc(F)c(N2C(=O)N(C(=O)NC3CC3)C(C)(C)C2=O)cc1SCC(F)(F)F [Ex. No. 74, N-Cyclopropyl-3-[2-fluoro-4-methyl-5-(2,2,2-trifluoroethylsulphanyl)phenyl]-5,5-dimethyl-2,4-dioxoimidazolidine-1-carboxamide]
- pest or weed control at 500 g/ha (Tetranychus urticae): 100%
- chromatographic logP [1, 2]: 3.76
- chromatographic logP [1, 3]: 3.76
- chromatographic logP [1, 4]: 3.72
- chromatographic logP [1, 5]: 3.72

SMILES: Cc1cc(F)c(N2C(=O)N(C(=O)NC3CC3)C(C)(C)C2=O)cc1[S+]([O-])CC(F)(F)F (stereo not drawn) [Ex. No. 84, N-Cyclopropyl-3-[2-fluoro-4-methyl-5-(2,2,2-trifluoroethylsulphinyl)phenyl]-5,5-dimethyl-2,4-dioxoimidazolidine-1-carboxamide]
- pest or weed control at 500 g/ha (Tetranychus urticae): 100%
- chromatographic logP [1, 2]: 2.73
- chromatographic logP [1, 3]: 2.73
- chromatographic logP [1, 4]: 2.73
- chromatographic logP [1, 5]: 2.73

SMILES: Cc1cc(F)c(N2C(=O)CNC2=O)cc1SCC(F)(F)F [IIa-1]
- pest or weed control at 500 g/ha (Tetranychus urticae): 90%
- chromatographic logP [1, 2]: 2.11
- chromatographic logP [1, 6]: 2.11
- chromatographic logP [1, 4]: 2.08
- chromatographic logP [1, 7]: 2.08

SMILES: Cc1cc(F)c(N2C(=O)CNC2=S)cc1SCC(F)(F)F [IIa-2, 3-[2-Fluoro-4-methyl-5-(2,2,2-trifluoroethylsulphanyl)phenyl]-2-thioxoimidazolidin-4-one]
- pest or weed control at 500 g/ha (Tetranychus urticae): 100%
- chromatographic logP [1, 2]: 2.53
- chromatographic logP [1, 6]: 2.53
- chromatographic logP [1, 4]: 2.5
- chromatographic logP [1, 7]: 2.5

SMILES: Cc1cc(F)c(N2C(=O)CNC2=O)cc1[S+]([O-])CC(F)(F)F (stereo not drawn) [IIb-1]
- pest or weed control at 500 g/ha (Tetranychus urticae): 100%
- chromatographic logP [1, 2]: 1.33
- chromatographic logP [1, 6]: 1.33
- chromatographic logP [1, 4]: 1.31
- chromatographic logP [1, 7]: 1.31

SMILES: Cc1cc(F)c(N2C(=O)CN(C(=O)NC(C)C)C2=S)cc1[S+]([O-])CC(F)(F)F (stereo not drawn) [compound 14]
- efficacy (spider mites killed) (Tetranychus urticae): 100%
- logP[a] [1]: 3.01
- logP[b] [1]: 2.93

SMILES: Cc1cc(F)c(N2C(=O)CN(C(=O)Nc3ccccc3)C2=O)cc1SCC(F)(F)F [compound 16]
- efficacy (spider mites killed) (Tetranychus urticae): 100%
- logP[a] [1]: 3.82
- logP[b] [1]: 3.71

SMILES: Cc1cc(F)c(N2C(=O)CN(C(=O)NCc3ccccc3)C2=O)cc1SCC(F)(F)F [compound 18]
- efficacy (spider mites killed) (Tetranychus urticae): 90%
- logP[a] [1]: 3.64
- logP[b] [1]: 3.53

SMILES: Cc1cc(F)c(N2C(=O)CN(C(=O)Nc3ccccc3)C2=O)cc1[S+]([O-])CC(F)(F)F (stereo not drawn) [compound 19]
- efficacy (spider mites killed) (Tetranychus urticae): 90%
- logP[a] [1]: 2.89
- logP[b] [1]: 2.83

SMILES: Cc1cc(C)c(N2C(=O)CN(C(=O)NC(C)C)C2=O)cc1SCC(F)(F)F [compound 22]
- efficacy (spider mites killed) (Tetranychus urticae): 100%
- logP[a] [1]: 3.48
- logP[b] [1]: 3.38

SMILES: Cc1cc(F)c(N2C(=O)C(C)N(C(=O)NC3CC3)C2=O)cc1SCC(F)(F)F (stereo not drawn) [compound 25]
- efficacy (spider mites killed) (Tetranychus urticae): 100%
- logP[a] [1]: 3.43
- logP[b] [1]: 3.35

SMILES: Cc1cc(F)c(N2C(=O)C(C)N(C(=O)NC(C)C)C2=O)cc1SCC(F)(F)F (stereo not drawn) [compound 26]
- efficacy (spider mites killed) (Tetranychus urticae): 100%
- logP[a] [1]: 3.78
- logP[b] [1]: 3.68

SMILES: CCNC(=O)N1CC(=O)N(c2cc(SCC(F)(F)F)c(C)cc2C)C1=O [compound 31]
- efficacy (spider mites killed) (Tetranychus urticae): 90%
- logP[a] [1]: 3.14
- logP[b] [1]: 3.04

SMILES: CCNC(=O)N1CC(=O)N(c2cc([S+]([O-])CC(F)(F)F)c(C)cc2C)C1=O (stereo not drawn) [compound 32]
- efficacy (spider mites killed) (Tetranychus urticae): 100%
- logP[a] [1]: 2.14
- logP[b] [1]: 2.12

SMILES: Cc1cc(C)c(N2C(=O)CN(C(=O)NC(C)(C)C)C2=O)cc1SCC(F)(F)F [compound 33]
- efficacy (spider mites killed) (Tetranychus urticae): 100%
- logP[a] [1]: 3.86
- logP[b] [1]: 3.89

SMILES: Cc1cc(C)c(N2C(=O)CN(C(=O)NCC(C)C)C2=O)cc1SCC(F)(F)F [compound 34]
- efficacy (spider mites killed) (Tetranychus urticae): 100%
- logP[a] [1]: 3.80
- logP[b] [1]: 3.69

SMILES: Cc1cc(C)c([S+]([O-])CC(F)(F)F)cc1N1C(=O)CN(C(=O)NC(C)(C)C)C1=O (stereo not drawn) [compound 40]
- efficacy (spider mites killed) (Tetranychus urticae): 100%
- logP[a] [1]: 2.90
- logP[b] [1]: 2.83

SMILES: Cc1cc(F)c(N2C(=O)CN(C(=O)Nc3cccc(Cl)c3)C2=O)cc1SCC(F)(F)F [compound 45]
- efficacy (spider mites killed) (Tetranychus urticae): 100%
- logP[a] [1]: 4.23
- logP[b] [1]: 4.16

SMILES: Cc1cc(C)c(N2C(=O)CN(C(=O)NC3CC3)C2=O)cc1SCC(F)(F)F [compound 49]
- efficacy (spider mites killed) (Tetranychus urticae): 100%
- logP[a] [1]: 1.36
- logP[b] [1]: 2.81

SMILES: CCNC(=O)N1CC(=O)N(c2cc(SCC(F)(F)F)c(C)cc2Cl)C1=O [compound 51]
- efficacy (spider mites killed) (Tetranychus urticae): 100%
- logP[a] [1]: 3.19
- logP[b] [1]: 3.13

SMILES: Cc1cc(Cl)c(N2C(=O)CN(C(=O)NCC(C)C)C2=O)cc1SCC(F)(F)F [compound 52]
- efficacy (spider mites killed) (Tetranychus urticae): 100%
- logP[a] [1]: 3.93
- logP[b] [1]: 3.78

SMILES: Cc1cc(C)c(N2C(=O)CN(C(=O)Nc3cccc(CC(F)(F)F)c3)C2=O)cc1SCC(F)(F)F [compound 55]
- efficacy (spider mites killed) (Tetranychus urticae): 90%
- logP[a] [1]: 4.43
- logP[b] [1]: 4.35

SMILES: Cc1cc(Cl)c(N2C(=O)CN(C(=O)NCc3ccccc3)C2=O)cc1SCC(F)(F)F [compound 57]
- efficacy (spider mites killed) (Tetranychus urticae): 100%
- logP[a] [1]: 3.81
- logP[b] [1]: 3.61

SMILES: Cc1cc(Cl)c(N2C(=O)CN(C(=O)Nc3cccc(CC(F)(F)F)c3)C2=O)cc1SCC(F)(F)F [compound 58]
- efficacy (spider mites killed) (Tetranychus urticae): 100%
- logP[a] [1]: 4.51
- logP[b] [1]: 4.38

SMILES: Cc1cc(Cl)c(N2C(=O)CN(C(=O)Nc3cccc(Cl)c3)C2=O)cc1SCC(F)(F)F [compound 59]
- efficacy (spider mites killed) (Tetranychus urticae): 100% and 90%
- logP[a] [1]: 4.46
- logP[b] [1]: 4.28

SMILES: Cc1cc(C)c([S+]([O-])CC(F)(F)F)cc1N1C(=O)CN(C(=O)NC2CC2)C1=O (stereo not drawn) [compound 60]
- efficacy (spider mites killed) (Tetranychus urticae): 100%
- logP[a] [1]: 2.24
- logP[b] [1]: 2.17
